Measurements as given in US10308685B2, “Inhibitory peptides of viral infection” (UNIVERSITY OF TENNESSEE RESEARCH FOUNDATION, priority 2014, dated 2019).
pIC50: −log10 of the molar value. Where a SMILES comes first, the peptide text is derived from it. Where no end group is shown, it is not given here.

Key:
[1] = target: HCMV expressing luciferase (Towne strain); assay type: cell-based, Human Cytomegalovirus; settings: MRC-5 cells, peptide 30 min prior to virus
Method: A recombinant luciferase-expressing Towne strain of HCMV was used for each experiment. To obtain the virus, the virus was cultured in vitro on HFF cells. The virus was titered using a standard plaque assay.
Cells were cultured according to methods known to those of skill in the art. Briefly, human fetal lung fibroblasts (MRC-5, ATCC) were cultured in minimum essential media (MEM, HyClone) supplemented with fetal bovine serum (FBS, HyClone), and L-glutamine. Human foreskin fibroblasts (HFF, ATCC) were cultured in dulbecco's modified eagle medium (DMEM, GE HyClone) supplemented with FBS, L-glutamine and sodium pyruvate. Human aortic endothelial cells were cultured in EGM-2 Bullet Kit (Lonza) supplemented with FBS. Human retinal pigment epithelia cells (ARPE-19) were cultured in DMEM and Hams F12 medium (Lonza) and supplemented with FBS.
Efficacy of viral reduction was measured using a luciferase assay with HCMV expressing luciferase virus. Cells were cultured in a 24-well plate until they reached ˜80% confluency. The cells were washed with phosphate buffered saline (PBS) then treated with peptide. The control cells were treated with PBS supplemented with FBS. After peptide incubation, virus was added (100 RLU for MRC-5, HFF and 1000 RLU for HAEC, ARPE-19) for 1 h. […] After the addition of LAR to the supernatant the luminescence was quantified using a plate reader (BioTek). […]

[2] = tested on: trypsin; test: Proteolytic stability: trypsin incubation, then HCMV luciferase assay on MRC-5 cells; assay type: in vitro ADME; settings: 200 μM peptide, 200 μg/ml trypsin, 37° C., 30 and 60 minutes
Method: FIG. 8. Proteolytic stability of p5 and Dp5R. 200 μM of each peptide, CGGY-p5 (SEQ ID NO: 22) and GGGY-Dp5R (SEQ ID NO: 24, D form), was incubated with 200 μg/ml of trypsin for 30 minutes and 60 minutes then added to MRC-5 cells 30 minutes prior to the addition of virus. Data is representative of three separate experiments with three repeats ±SD.
Without wishing to be bound by any particular theory, this increased binding could be due to proteolytic stability of the D-form. Trypsin was thus used to test the proteolytic stability of p5 and Dp5R. More particularly, each peptide was incubated at 37° C. for 30 minutes and 60 minutes with 200 μg/ml of trypsin then added to cells 30 minutes before the addition of virus.

[3] = tested on: MCMV; assay type: cell-based, Murine Cytomegalovirus; settings: for inhibition of MCMV infection (plaque reduction): 500 μg/ml, mouse embryonic fibroblasts incubated with peptide 30 min prior to virus
Method: Murine Cytomegalovirus (MCMV) RM4503 was cultured in vitro in MEF 10.1 cells. The virus stock was titered using plaque assay (described below) and stored at −80° C. Human Cytomegalovirus (HCMV) TB40/E was obtained from (46, 47) and cultures in vitro in HFF cells. The virus stock was titered using plaque assay and stored at −80° C. HSV-1 and HSV-2 were cultured in vitro in VERO cells. The virus stock was titered using plaque assay and stored at −80° C.
Peptides were screened for their ability to reduce viral infection using a plaque reduction assay. Cells were cultured in 12-well (VERO) or 24-well culture plates (MEF 10.1 and HFF). When the cells reached ˜80% confluence the media was removed and the cells washed once with PBS before addition of peptide. As a control, cells were incubated with PBS alone. After a 30 min of incubation with peptide in PBS, the virus was added and incubated for another 90 min (HSV and HCMV) or 60 min (MCMV). Following virus incubation the peptide/virus mixture was removed and replaced with 0.75% carboxy-methyl cellulose (Sigma Aldrich, St. Louis, Mo.)+complete media (CMC) or 0.5% agarose (Lonza, Rockland, Me.) in complete media. The plates were incubated at 37° C. in 5% CO2 for 4 days when plaques began to develop, following which they were stained with Coomassie stain (AMRESCO, Solon, Ohio). Plaques were counted manually and data analyzed using Prism 5.0 (GraphPad Software, La Jolla, Calif.). Data were expressed as % plaques relative to the average number of plaques in the PBS-treated wells.
In the initial screening assays all peptides were tested at a single concentration (500 μg/ml) using a plaque-reduction assay, in which mouse embryonic fibroblasts were incubated with the peptides for 30 min prior to the addition of virus.
In the infectivity assays described above the peptide and virus were co-incubated with the cells. Therefore to ensure the peptide was not directly inactivating the virus, MCMV was incubated with 100 μM (˜20× the IC50) peptide at 37° C. for 1 h, diluted to an ineffective peptide concentration (1 μM) and fibroblast infection rates measured.
To determine at which stage of the MCMV entry cycle the peptide interferes, four different peptide treatment protocols were tested, 1) 30 min. prior to infection (pre-adsorption) 2) simultaneously with virus (during adsorption) 3) after letting the virus adsorb to the cells at 4° C. for lhr (post adsorption) or 4) after allowing the virus to fuse with the cell membrane at 37° C. for lhr (post fusion) (FIG. 3(B)).

[4] = tested on: MEF 10.1 cells; test: Visualization of bound biotinylated peptide on fixed MEF cells (fluorescence); assay type: binding, Mouse; settings: 1.6 μg/mL, streptavidin fluorescence
Method: Coverslips with fixed MEF cells prepared, washed in PBS and blocked with 1% BSA/PBS for 5 min. Following a PBS wash the nuclei were stained by using Hoechst (Life Technologies Molecular Probes, Grand Island, N.Y.) 1:100 in H2O— for 30 min at 37° C. Tissues were then blocked using a casein block solution (Scytek) for 5 min, AVIDIN/Biotin blocks (VECTOR, Burlingame, Calif.) for 20 min each at room temperature (RT) followed by a 5 min PBS wash. Biotinylated GGGY-p5+14 (SEQ ID NO: 25) or p5G (control) at 1.6 μg/mL in PBS was added and the tissues incubated overnight at 4° C. Following a PBS wash Alexa Fluor 594-conjugated streptavidin (Molecular Probes) was added at a 1:200 dilution in PBS for lhr at RT. Cells were then permeabilized by addition of 0.2% Triton X-100 (Sigma) in PBS for 10 min at RT and washed with a solution of 1% BSA in PBS for 30 min. The cells were then stained with Alexa Fluor 488-conjugated phalloidin (Molecular Probes) 1:100 dilution of stock in 1% BSA/PBS, for 45 min. at RT to visualize cytoskeleton. Slides were cover-slipped using a fluorescent mounting medium (Dako, Carpinteria, Calif.) to minimize photobleaching.

[5] = mouse, in vivo; cited from earlier work
[6] = tested on: MCMV; test: Interference of peptide mediated reduction by heparin (MCMV plaque reduction); assay type: cell-based, Murine Cytomegalovirus
Method: Peptide GGGY-p5+14 (SEQ ID NO: 25) (at 100 μM) was pre-incubated with heparin sodium salt (Acros Organics, NJ) at different concentrations for 1 h at 37° C. Following which the heparin/peptide mix was added to the cells and incubated for 30 min at 37° C. Following the incubation, the supernatant was aspirated and cells washed once with PBS to remove unbound/excess heparin or peptide. The cells were subsequently infected with ˜100 pfu/well of MCMV. To test whether heparin treatment of cells interferes with virus infection, MEF 10.1 cells in a 24 well dish were pre-incubated with different concentrations of heparin for 1 hour and washed as described above. Following the pre-incubation infection was initiated as mentioned above. Finally to test the effect of heparin treatment on the infectivity of virus, MCMV was incubated with different concentration of heparin for lhr before infecting cells. For all these treatments, the virus was removed lhr post infection and cells overlaid with CMC. Plates were incubated for 4 days before staining and counting the plaques. Plaque reduction assay was performed as mentioned above.

Molecule: C[C@@H](NC(=O)[C@@H](CCC(N)=O)NC(=O)[C@@H](C)NC(=O)[C@@H](CCCNC(=N)N)NC(=O)[C@@H](CCC(N)=O)NC(=O)[C@@H](C)NC(=O)[C@@H](CCCNC(=N)N)NC(=O)[C@@H](CCC(N)=O)NC(=O)[C@@H](C)NC(=O)[C@@H](CCC(N)=O)NC(=O)[C@@H](CCCNC(=N)N)NC(=O)[C@@H](C)NC(=O)[C@@H](CCC(N)=O)NC(=O)[C@@H](CCCNC(=N)N)NC(=O)[C@@H](C)NC(=O)[C@@H](CCC(N)=O)NC(=O)[C@@H](C)NC(=O)[C@@H](CCCNC(=N)N)NC(=O)[C@@H](CCC(N)=O)NC(=O)[C@@H](C)NC(=O)[C@@H](CCCNC(=N)N)NC(=O)[C@@H](CO)NC(=O)[C@@H](Cc1ccc(O)cc1)NC(=O)CNC(=O)CNC(=O)CN)C(=O)N[C@H](CCCNC(=N)N)C(=O)N[C@H](CCC(N)=O)C(=O)N[C@H](C)C(=O)N[C@H](CCCNC(=N)N)C(=O)N[C@H](CCC(N)=O)C(=O)O [GGGY-Dp5R] (HELM PEPTIDE1{G.G.G.[dY].[dS].[dR].[dA].[dQ].[dR].[dA].[dQ].[dA].[dR].[dQ].[dA].[dR].[dQ].[dA].[dQ].[dR].[dA].[dQ].[dR].[dA].[dQ].[dA].[dR].[dQ].[dA].[dR].[dQ]}$$$$V2.0; N-terminus and C-terminus assumed)
- pIC50 [1]: ~4.12
- ability to reduce infection after incubation with trypsin [2]: retained its ability to reduce infection

Molecule: CGGYSEAQEAQAEQAEQAQEAQEAQAEQAEQ (Peptide CGGY-p5e Synthetic Construct)
- inhibition of MCMV infection (plaque reduction) [3]: did not reduce MCMV infection

Molecule: CGGYSGAQGAQAGQAGQAQGAQGAQAGQAGQ (also: biotinylated) [CGGY-p5G]
- inhibition of MCMV infection (plaque reduction) [3]: did not reduce MCMV infection
- binding to mouse fibroblasts in culture [4]: did not bind to cells

Molecule: CGGYSKAQKAQAKQAKQAQKAQKAQAKQAKQ [CGGY-p5]
- pIC50 [1]: ~4.22
- ability to reduce infection after incubation with trypsin [2]: only able to reduce viral infection in cells when it had not been treated with trypsin
- peptide binding to GAGs expressed in healthy organs or tissues [5]: no evidence of peptide binding to GAGs expressed in healthy organs or tissues

Molecule: CGGYSLAQLAQALQALQAQLAQLAQALQALQ (Peptide CGGY-p5L Synthetic Construct)
- inhibition of MCMV infection (plaque reduction) [3]: did not reduce MCMV infection

Molecule: GGGYSRAQRAQARQARQAQRAQRAQARQARQ (CGGY-p5R Peptide Synthetic Construct) [GGGY-p5R]
- blocks viral infection better compared to peptide p5 (CGGY-p5) ([3]; 500 μg/ml screen, FIG. 1(A)): 4 fold

Molecule: MPRRRRIRRRQK (Peptide G2 Synthetic Construct) [reference compound]
- reduction in infection (MCMV) ([3]; 10 μM): ineffective
- inhibition of MCMV infection ([3]; 100 μM): effectively inhibited

Molecule: heparin sodium salt
- MCMV infection after pre-incubation of the cells with heparin ([6]; cells pre-incubated with heparin 1 hour prior to virus addition): did not alter MCMV infection
- reduction of virus infection after pre-incubation of virus with heparin ([6]; heparin concentrations >2 μg/mL): > 80%
